Assays:
Test in all cases: Test C preemergence
Type in all cases: in vivo
[1] = tested on: goosegrass (Eleusine indica)
Method in brief: (§1)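 Compounds in non-phytotoxic solvent with surfactant applied preemergence to planted seeds and postemergence to plants at 1- to 4-leaf stage (2–18 cm). Kept in greenhouse 12–14 days, then visually rated against controls on a 0 (no effect) to 100 (complete control) scale.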

[2] = tested on: pigweed (Amaranthus retroflexus)
Method in brief: as §1

[3] = tested on: Nightshade
[4] = tested on: yellow nutsedge (Cyperus esculentus)
Method in brief: as §1

[5] = tested on: corn (Zea mays)
Method in brief: as §1

[6] = tested on: velvetleaf (Abutilon theophrasti)
Method in brief: as §1

[7] = tested on: johnsongrass (Sorghum halepense)
Method in brief: as §1

[8] = tested on: lambsquarters (Chenopodium album)
Method in brief: as §1

[9] = tested on: Surinam grass (Brachiaria decumbens)
Method in brief: as §1

[10] = tested on: morningglory (Ipomoea hederacea)
Method in brief: as §1

[11] = tested on: Sunflower; conditions: Rate 125 g/ha; scale 0 to 100, 0 no effect, 100 complete control
[12] = tested on: crabgrass (Digitaria sanguinalis)
Method in brief: as §1

[13] = tested on: soybean (Glycine max)
Method in brief: as §1

[14] = tested on: bermudagrass (Cynodon dactylon)
Method in brief: as §1

[15] = tested on: common ragweed (Ambrosia elatior)
Method in brief: as §1

[16] = tested on: kochia (Kochia scoparia)
Method in brief: as §1

[17] = tested on: woolly cupgrass (Eriochloa villosa)
Method in brief: as §1

[18] = tested on: giant foxtail (Setaria faberii)
Method in brief: as §1

[19] = tested on: cocklebur (Xanthium strumarium)
Method in brief: as §1

[20] = tested on: Sunflower; conditions: Rate 250 g/ha, scale 0 to 100, 0 no effect, 100 complete control
[21] = Rate 125 g/ha, scale 0 to 100, 0 no effect, 100 complete control
[22] = preemergence, Rate 31 g/ha, scale 0 to 100
[23] = preemergence, Rate 62 g/ha, scale 0 to 100
[24] = preemergence, Rate 250 g/ha, scale 0 to 100, 0 no effect, 100 complete control
[25] = Rate 250 g/ha, scale 0 to 100, 0 no effect, 100 complete control

## CC(C)(C)c1ccn(C2CCN(c3cccc([S+]([O-])C(F)(F)F)c3)C2=O)n1 (stereo not shown) [Compound 101]
[1]; [21]
  Plant response rating, Goosegrass: 100
[1]; [22]
  Plant response rating, Goosegrass: 10
[1]; [23]
  Plant response rating, Goosegrass: 100
[1]; [24]
  Plant response rating, Goosegrass: 100
[2]; [21]
  Plant response rating, Pigweed: 0
[2]; [22]
  Plant response rating, Pigweed: 0
[2]; [23]
  Plant response rating, Pigweed: 0
[2]; [24]
  Plant response rating, Pigweed: 10
[3]; Rate 31 g/ha, scale 0 to 100
  Plant response rating, Nightshade: 0
[3]; Rate 62 g/ha, scale 0 to 100
  Plant response rating, Nightshade: 0
[3]; [21]
  Plant response rating, Nightshade: 90
[3]; [25]
  Plant response rating, Nightshade: 100
[4]; [21]
  Plant response rating, Nutsedge: 0
[4]; [22]
  Plant response rating, Nutsedge: 0
[4]; [23]
  Plant response rating, Nutsedge: 0
[4]; [24]
  Plant response rating, Nutsedge: 0
[5]; [21]
  Plant response rating, Corn: 0
[5]; [22]
  Plant response rating, Corn: 0
[5]; [23]
  Plant response rating, Corn: 0
[5]; [24]
  Plant response rating, Corn: 60
[6]; [21]
  Plant response rating, Velvetleaf: 50
[6]; [22]
  Plant response rating, Velvetleaf: 20
[6]; [23]
  Plant response rating, Velvetleaf: 20
[6]; [24]
  Plant response rating, Velvetleaf: 90
[7]; [21]
  Plant response rating, Johnsongrass: 40
[7]; [22]
  Plant response rating, Johnsongrass: 0
[7]; [23]
  Plant response rating, Johnsongrass: 10
[7]; [24]
  Plant response rating, Johnsongrass: 90
[8]; [21]
  Plant response rating, Lambsquarters: 100
[8]; [22]
  Plant response rating, Lambsquarters: 0
[8]; [23]
  Plant response rating, Lambsquarters: 0
[8]; [24]
  Plant response rating, Lambsquarters: 100
[9]; [21]
  Plant response rating, Surinam grass: 20
[9]; [22]
  Plant response rating, Surinam grass: 0
[9]; [23]
  Plant response rating, Surinam grass: 0
[9]; [24]
  Plant response rating, Surinam grass: 40
[10]; [21]
  Plant response rating, Morningglory: 0
[10]; [22]
  Plant response rating, Morningglory: 0
[10]; [23]
  Plant response rating, Morningglory: 0
[10]; [24]
  Plant response rating, Morningglory: 100
[11]
  Plant response rating, Sunflower: 0
[12]; [21]
  Plant response rating, Crabgrass: 100
[12]; [22]
  Plant response rating, Crabgrass: 90
[12]; [23]
  Plant response rating, Crabgrass: 100
[12]; [24]
  Plant response rating, Crabgrass: 100
[13]; [21]
  Plant response rating, Soybean: 0
[13]; [22]
  Plant response rating, Soybean: 0
[13]; [23]
  Plant response rating, Soybean: 0
[13]; [24]
  Plant response rating, Soybean: 50
[14]; [21]
  Plant response rating, Bermudagrass: 100
[14]; [22]
  Plant response rating, Bermudagrass: 40
[14]; [23]
  Plant response rating, Bermudagrass: 40
[14]; [24]
  Plant response rating, Bermudagrass: 100
[15]; [21]
  Plant response rating, Ragweed, Common: 100
[15]; [22]
  Plant response rating, Ragweed, Common: 0
[15]; [23]
  Plant response rating, Ragweed, Common: 0
[15]; [24]
  Plant response rating, Ragweed, Common: 100
[16]; [21]
  Plant response rating, Kochia: 0
[16]; [22]
  Plant response rating, Kochia: 0
[16]; [23]
  Plant response rating, Kochia: 0
[16]; [24]
  Plant response rating, Kochia: 0
[17]; [21]
  Plant response rating, Cupgrass, Woolly: 20
[17]; [22]
  Plant response rating, Cupgrass, Woolly: 0
[17]; [23]
  Plant response rating, Cupgrass, Woolly: 0
[17]; [24]
  Plant response rating, Cupgrass, Woolly: 100
[18]; [21]
  Plant response rating, Foxtail, Giant: 40
[18]; [22]
  Plant response rating, Foxtail, Giant: 0
[18]; [23]
  Plant response rating, Foxtail, Giant: 40
[18]; [24]
  Plant response rating, Foxtail, Giant: 100
[19]; [21]
  Plant response rating, Cocklebur: 0
[19]; [22]
  Plant response rating, Cocklebur: 0
[19]; [23]
  Plant response rating, Cocklebur: 0
[19]; [24]
  Plant response rating, Cocklebur: 50
[20]
  Plant response rating, Sunflower: 30

## CCOc1cc(N2CCC(n3ccc(C(C)(C)C)n3)C2=O)ccc1C (stereo not shown) [Compound 106]
[1]; [21]
  Plant response rating, Goosegrass: 100
[1]; [22]
  Plant response rating, Goosegrass: 100
[1]; [23]
  Plant response rating, Goosegrass: 100
[1]; [24]
  Plant response rating, Goosegrass: 100
[2]; [21]
  Plant response rating, Pigweed: 100
[2]; [22]
  Plant response rating, Pigweed: 70
[2]; [23]
  Plant response rating, Pigweed: 100
[2]; [24]
  Plant response rating, Pigweed: 90
[3]; Rate 31 g/ha, scale 0 to 100
  Plant response rating, Nightshade: 100
[3]; Rate 62 g/ha, scale 0 to 100
  Plant response rating, Nightshade: 100
[3]; [21]
  Plant response rating, Nightshade: 100
[3]; [25]
  Plant response rating, Nightshade: 100
[4]; [21]
  Plant response rating, Nutsedge: 80
[4]; [22]
  Plant response rating, Nutsedge: 10
[4]; [23]
  Plant response rating, Nutsedge: 10
[4]; [24]
  Plant response rating, Nutsedge: 100
[5]; [21]
  Plant response rating, Corn: 0
[5]; [22]
  Plant response rating, Corn: 0
[5]; [23]
  Plant response rating, Corn: 0
[5]; [24]
  Plant response rating, Corn: 40
[6]; [21]
  Plant response rating, Velvetleaf: 100
[6]; [22]
  Plant response rating, Velvetleaf: 90
[6]; [23]
  Plant response rating, Velvetleaf: 100
[6]; [24]
  Plant response rating, Velvetleaf: 100
[7]; [21]
  Plant response rating, Johnsongrass: 100
[7]; [22]
  Plant response rating, Johnsongrass: 30
[7]; [23]
  Plant response rating, Johnsongrass: 70
[7]; [24]
  Plant response rating, Johnsongrass: 100
[8]; [21]
  Plant response rating, Lambsquarters: 100
[8]; [22]
  Plant response rating, Lambsquarters: 100
[8]; [23]
  Plant response rating, Lambsquarters: 100
[8]; [24]
  Plant response rating, Lambsquarters: 100
[9]; [21]
  Plant response rating, Surinam grass: 90
[9]; [22]
  Plant response rating, Surinam grass: 30
[9]; [23]
  Plant response rating, Surinam grass: 90
[9]; [24]
  Plant response rating, Surinam grass: 100
[10]; [21]
  Plant response rating, Morningglory: 100
[10]; [22]
  Plant response rating, Morningglory: 80
[10]; [23]
  Plant response rating, Morningglory: 90
[10]; [24]
  Plant response rating, Morningglory: 100
[11]
  Plant response rating, Sunflower: 80
[12]; [21]
  Plant response rating, Crabgrass: 100
[12]; [22]
  Plant response rating, Crabgrass: 100
[12]; [23]
  Plant response rating, Crabgrass: 100
[12]; [24]
  Plant response rating, Crabgrass: 100
[13]; [21]
  Plant response rating, Soybean: 100
[13]; [22]
  Plant response rating, Soybean: 80
[13]; [23]
  Plant response rating, Soybean: 100
[13]; [24]
  Plant response rating, Soybean: 100
[14]; [21]
  Plant response rating, Bermudagrass: 100
[14]; [22]
  Plant response rating, Bermudagrass: 100
[14]; [23]
  Plant response rating, Bermudagrass: 100
[14]; [24]
  Plant response rating, Bermudagrass: 100
[15]; [21]
  Plant response rating, Ragweed, Common: 100
[15]; [22]
  Plant response rating, Ragweed, Common: 80
[15]; [23]
  Plant response rating, Ragweed, Common: 100
[15]; [24]
  Plant response rating, Ragweed, Common: 100
[16]; [21]
  Plant response rating, Kochia: 100
[16]; [22]
  Plant response rating, Kochia: 100
[16]; [23]
  Plant response rating, Kochia: 100
[16]; [24]
  Plant response rating, Kochia: 100
[17]; [21]
  Plant response rating, Cupgrass, Woolly: 100
[17]; [22]
  Plant response rating, Cupgrass, Woolly: 60
[17]; [23]
  Plant response rating, Cupgrass, Woolly: 100
[17]; [24]
  Plant response rating, Cupgrass, Woolly: 100
[18]; [21]
  Plant response rating, Foxtail, Giant: 40
[18]; [22]
  Plant response rating, Foxtail, Giant: 0
[18]; [23]
  Plant response rating, Foxtail, Giant: 0
[18]; [24]
  Plant response rating, Foxtail, Giant: 100
[19]; [21]
  Plant response rating, Cocklebur: 90
[19]; [22]
  Plant response rating, Cocklebur: 70
[19]; [23]
  Plant response rating, Cocklebur: 90
[19]; [24]
  Plant response rating, Cocklebur: 100
[20]
  Plant response rating, Sunflower: 90

From patent US7138361B2, “Herbicidal heterocycles” (E. I. du Pont de Nemours and Company, priority 2000, dated 2006)
